Test results as given in PubChem BioAssay AID1918952 (Molecular Pharmacology Branch, DTP, NCI, 2023).
pIC50: −log10 of the molar value. “And” between values parts separate entries of the source, which are not always exact repeats. Identical values can stand only once.

System: LG0703-F948-PDC complex spheroid viability
Experiment: Anticancer human tumor LG0703-F948-PDC patient-derived lung adenocarcinoma cell line growth inhibition
Settings: for viability, T/C: stronger effect = lower value
Method in brief: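 Drug combinations with the LSD1 inhibitor iadademstat tested on tumor cells co-cultured as spheroids with endothelial cells and mesenchymal stem cells. Concentrations descended in half-log increments from clinical Cmax or 10 microM.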

[1] = curve of first compound, second compound 0.1 µM
[2] = curve of first compound, second compound 0.316 µM
[3] = curve of first compound, second compound 1 µM
[4] = curve of first compound, second compound 3.16 µM
[5] = curve of first compound, second compound 10 µM
[6] = second compound 0.1 µM, first compound 0.000316 µM
[7] = second compound 0.1 µM, first compound 0.001 µM
[8] = second compound 0.1 µM, first compound 0.00316 µM
[9] = second compound 0.1 µM, first compound 0.01 µM
[10] = second compound 0.1 µM, first compound 0.0316 µM
[11] = second compound 0.1 µM, first compound 0.1 µM
[12] = second compound 0.316 µM, first compound 0.000316 µM
[13] = second compound 0.316 µM, first compound 0.001 µM
[14] = second compound 0.316 µM, first compound 0.00316 µM
[15] = second compound 0.316 µM, first compound 0.01 µM
[16] = second compound 0.316 µM, first compound 0.0316 µM
[17] = second compound 0.316 µM, first compound 0.1 µM
[18] = second compound 1 µM, first compound 0.000316 µM
[19] = second compound 1 µM, first compound 0.001 µM
[20] = second compound 1 µM, first compound 0.00316 µM
[21] = second compound 1 µM, first compound 0.01 µM
[22] = second compound 1 µM, first compound 0.0316 µM
[23] = second compound 1 µM, first compound 0.1 µM
[24] = second compound 3.16 µM, first compound 0.000316 µM
[25] = second compound 3.16 µM, first compound 0.001 µM
[26] = second compound 3.16 µM, first compound 0.00316 µM
[27] = second compound 3.16 µM, first compound 0.01 µM
[28] = second compound 3.16 µM, first compound 0.0316 µM
[29] = second compound 3.16 µM, first compound 0.1 µM
[30] = second compound 10 µM, first compound 0.000316 µM
[31] = second compound 10 µM, first compound 0.001 µM
[32] = second compound 10 µM, first compound 0.00316 µM
[33] = second compound 10 µM, first compound 0.01 µM
[34] = second compound 10 µM, first compound 0.0316 µM
[35] = second compound 10 µM, first compound 0.1 µM
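Note: spheroids exposed to agents for seven days before readout.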
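Throughout, for viability, T/C: 100% = DMSO vehicle control wells as normalization base.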

SMILES | pIC50 [1] | pIC50 [2] | pIC50 [3] | pIC50 [4] | pIC50 [5] | viability, T/C [6] [%] | viability, T/C [7] [%] | viability, T/C [8] [%] | viability, T/C [9] [%] | viability, T/C [10] [%] | viability, T/C [11] [%] | viability, T/C [12] [%] | viability, T/C [13] [%] | viability, T/C [14] [%] | viability, T/C [15] [%] | viability, T/C [16] [%] | viability, T/C [17] [%] | viability, T/C [18] [%] | viability, T/C [19] [%] | viability, T/C [20] [%] | further results
CC[C@@]1(O)C(=O)OCc2c1cc1n(c2=O)Cc2cc3c(CN(C)C)c(O)ccc3nc2-1 + NC1CC1c1ccc(-c2cccc(O)c2)cc1 | < 7.00 | < 7.00 | < 7.00 | < 7.00 | < 7.00 | 117 | 116 | 106 | 84.8 | 70 | 49.7 | 118 | 107 | 106 | 82.8 | 64.5 | 55.3 | 114 | 109 | 97.8 | viability, T/C [21]: 95.2%; viability, T/C [22]: 67.1%; viability, T/C [23]: 54.3%; viability, T/C [24]: 108%; viability, T/C [25]: 97.2%; viability, T/C [26]: 100%; viability, T/C [27]: 89.2%; viability, T/C [28]: 81.9%; viability, T/C [29]: 71.5%; viability, T/C [30]: 103%; viability, T/C [31]: 115%; viability, T/C [32]: 107%; viability, T/C [33]: 76.5%; viability, T/C [34]: 78.8%; viability, T/C [35]: 62.1%
NC1CCC(NC2CC2c2ccccc2)CC1 (configuration not stated) |  |  |  |  |  |  |  |  |  |  |  |  |  |  |  |  |  |  |  |  | viability, T/C (compound 0.316 µM): 99.4% and 101% and 110%; pIC50 (compound alone, run of 02/15/2022): < 5.00
CC[C@@]1(O)C(=O)OCc2c1cc1n(c2=O)Cc2cc3c(CN(C)C)c(O)ccc3nc2-1 + NC1CCC(NC2CC2c2ccccc2)CC1 | < 7.00 | < 7.00 | < 7.00 | < 7.00 | < 7.00 | 103 | 129 | 110 | 87.4 | 64.8 | 52.8 | 117 | 111 | 104 | 95.8 | 78.2 | 63 | 128 | 132 | 122 | viability, T/C [21]: 101%; viability, T/C [22]: 77.7%; viability, T/C [23]: 61.9%; viability, T/C [24]: 110%; viability, T/C [25]: 134%; viability, T/C [26]: 117%; viability, T/C [27]: 101%; viability, T/C [28]: 98.4%; viability, T/C [29]: 69.6%; viability, T/C [30]: 130%; viability, T/C [31]: 123%; viability, T/C [32]: 115%; viability, T/C [33]: 96.6%; viability, T/C [34]: 96.8%; viability, T/C [35]: 84.5%
